We go through 21 molecules from patent US9624214B2, “Amino-substituted imidazo[1,2-a]pyridinecarboxamides and their use” (BAYER PHARMA AKTIENGESELLSCHAFT, priority 2012, dated 2017).

For the assay, the target named is T1, recombinant guanylate cyclase reporter cell line (Rattus norvegicus, UniProt P19686+P20595).
T1 construct: expressed in transfected cells
T1 sequence (P20595 1-619): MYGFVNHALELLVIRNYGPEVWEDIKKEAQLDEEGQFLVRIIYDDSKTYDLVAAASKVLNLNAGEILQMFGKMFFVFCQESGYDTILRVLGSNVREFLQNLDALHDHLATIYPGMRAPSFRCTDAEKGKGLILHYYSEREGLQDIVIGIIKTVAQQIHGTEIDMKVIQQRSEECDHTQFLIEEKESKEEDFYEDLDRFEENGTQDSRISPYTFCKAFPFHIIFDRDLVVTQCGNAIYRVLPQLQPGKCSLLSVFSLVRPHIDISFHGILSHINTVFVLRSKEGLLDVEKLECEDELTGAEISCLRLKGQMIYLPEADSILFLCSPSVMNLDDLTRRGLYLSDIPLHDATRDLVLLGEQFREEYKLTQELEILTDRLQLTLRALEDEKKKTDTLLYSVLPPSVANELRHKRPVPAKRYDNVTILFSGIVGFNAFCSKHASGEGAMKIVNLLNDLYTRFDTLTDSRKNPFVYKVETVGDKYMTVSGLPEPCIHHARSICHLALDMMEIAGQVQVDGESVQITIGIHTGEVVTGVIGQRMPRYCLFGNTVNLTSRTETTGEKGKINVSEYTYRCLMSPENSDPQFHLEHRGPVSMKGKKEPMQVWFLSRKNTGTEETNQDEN
T1 sequence (P19686 1-690): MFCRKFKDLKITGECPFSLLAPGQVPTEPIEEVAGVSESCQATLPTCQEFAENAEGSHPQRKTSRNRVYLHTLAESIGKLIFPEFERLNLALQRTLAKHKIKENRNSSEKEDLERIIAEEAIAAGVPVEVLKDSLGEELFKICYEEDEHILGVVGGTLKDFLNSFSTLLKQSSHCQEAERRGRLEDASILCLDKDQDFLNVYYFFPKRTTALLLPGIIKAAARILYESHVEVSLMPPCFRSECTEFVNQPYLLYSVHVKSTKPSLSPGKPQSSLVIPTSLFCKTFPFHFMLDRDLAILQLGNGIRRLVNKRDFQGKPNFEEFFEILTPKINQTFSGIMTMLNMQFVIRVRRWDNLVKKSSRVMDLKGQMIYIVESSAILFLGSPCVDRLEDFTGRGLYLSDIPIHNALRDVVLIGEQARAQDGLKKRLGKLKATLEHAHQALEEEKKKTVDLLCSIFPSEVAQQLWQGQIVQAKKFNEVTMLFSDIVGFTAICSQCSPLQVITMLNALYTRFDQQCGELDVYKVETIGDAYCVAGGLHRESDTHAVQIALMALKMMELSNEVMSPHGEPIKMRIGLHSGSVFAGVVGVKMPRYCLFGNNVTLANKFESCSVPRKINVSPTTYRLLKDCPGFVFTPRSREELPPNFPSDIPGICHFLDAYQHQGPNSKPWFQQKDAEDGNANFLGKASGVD
In words: B-2. Action on recombinant guanylate cyclase reporter cell line. Conditions: MEC = minimal effective concentration; in some cases mean values from individual determinations. Format: cell-based. The procedure, abridged:
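MEC values, meaning the lowest concentration producing a detectable response, were taken from a recombinant cyclase reporter cell assay. Where repeated, individual determinations were averaged.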

As to `CCCC(C)(N)CNC(=O)c1c(C)nc2c(OCc3c(F)cccc3F)cc(C(F)F)cn12` (single isomer, unassigned; enantiomer b) [Example 290, ent-N-(2-amino-2-methylpentyl)-8-[(2,6-difluorobenzyl)oxy]-6-(difluoromethyl)-2-methylimidazo[1,2-a]pyridine-3-carboxamide (Enantiomer B)], the MEC was found to be 0.3 µM.
On to `Cc1nc2c(OCc3c(F)cccc3F)cc(C(F)F)cn2c1C(=O)NCC(C)(N)CF` (single isomer, unassigned; enantiomer b) [Example 292, ent-N-(2-amino-3-fluoro-2-methylpropyl)-8-[(2,6-difluorobenzyl)oxy]-6-(difluoromethyl)-2-methylimidazo[1,2-a]pyridine-3-carboxamide (Enantiomer B)], for which the MEC was determined as 0.03 µM.
The figure for `Cc1cc(OCc2c(F)cccc2F)c2nc(C)c(C(=O)NC3CCC3N)n2c1` (single isomer, unassigned; enantiomer b) [Example 329, ent-N-(2-aminocyclobutyl)-8-[(2,6-difluorobenzyl)oxy]-2,6-dimethylimidazo[1,2-a]pyridine-3-carboxamide (Enantiomer B)] is 0.30 µM.
As for `Cc1cc(OCc2c(F)cccc2F)c2nc(C)c(C(=O)NC3CCC3(C)N)n2c1` (single isomer, unassigned; enantiomer b) [Example 333, ent-N-[2-amino-2-methylcyclobutyl]-8-[(2,6-difluorobenzyl)oxy]-2,6-dimethylimidazo[1,2-a]pyridine-3-carboxamide (Enantiomer B)], the MEC is 1.00 µM.
Under `Cc1cc(OCc2c(F)cccc2F)c2nc(C)c(C(=O)NC3(C)CCC3(C)N)n2c1` (single isomer, unassigned; enantiomer b) [Example 337, ent-N-[(2-amino-1,2-dimethylcyclobutyl]-8-[(2,6-difluorobenzyl)oxy]-2,6-dimethylimidazo[1,2-a]pyridine-3-carboxamide (Enantiomer B)] stands 0.55 µM; under `Cc1cc(OCc2c(F)cccc2F)c2nc(C)c(C(=O)NCC(N)C#N)n2c1` (single isomer, unassigned; enantiomer b) [Example 402, ent-N-(2-amino-2-cyanoethyl)-8-[(2,6-difluorobenzyl)oxy]-2,6-dimethylimidazo[1,2-a]pyridine-3-carboxamide (Enantiomer B)], 0.30 µM.
Turning to `Cc1cc(OCc2c(F)cccc2F)c2nc(C)c(C(=O)NCC(C)(N)CCC(F)(F)F)n2c1` (single isomer, unassigned; enantiomer b) [Example 409, ent-N-(2-amino-5,5,5-trifluoro-2-methylpentyl)-8-[(2,6-difluorobenzyl)oxy]-2,6-dimethylimidazo[1,2-a]pyridine-3-carboxamide (Enantiomer B)], the MEC stood at 0.03 µM.
Under `Cc1cc(OCc2c(F)ccc(F)c2F)c2nc(C)c(C(=O)NCC(C)(N)CCC(F)(F)F)n2c1` (single isomer, unassigned; enantiomer b) [Example 411, ent-N-(2-amino-5,5,5-trifluoro-2-methylpentyl)-2,6-dimethyl-8-[(2,3,6-trifluorobenzyl)oxy]imidazo[1,2-a]pyridine-3-carboxamide (Enantiomer B)] stands 0.03 µM.
On to `Cc1nc2c(OCc3c(F)cccc3F)cc(Cl)cn2c1C(=O)NC1CNCc2ccccc21` (single isomer, unassigned; ent-6) [Example 107, ent-6-chloro-8-[(2,6-difluorobenzyl)oxy]-2-methyl-N-(1,2,3,4-tetrahydroisoquinolin-4-yl)imidazo[1,2-a]pyridine-3-carboxamide], for which the MEC was 0.30 µM.
Under `Cc1nc2c(OCc3c(F)cccc3F)cc(Cl)cn2c1C(=O)NC1CNCc2ccccc21` (single isomer, unassigned; ent-6) [Example 108, ent-6-chloro-8-[(2,6-difluorobenzyl)oxy]-2-methyl-N-(1,2,3,4-tetrahydroisoquinolin-4-yl)imidazo[1,2-a]pyridine-3-carboxamide] stands 1.00 µM.
Turning to `Cc1nc2c(OCc3c(F)cccc3F)cc(Cl)cn2c1C(=O)NCC1CCCCN1` (single isomer, unassigned; ent-6) [Example 190, ent-6-Chloro-8-[(2,6-difluorobenzyl)oxy]-2-methyl-N-(piperidin-2-ylmethyl)imidazo[1,2-a]-pyridine-3-carboxamide], the MEC stood at 1.00 µM.
With `Cc1nc2c(OCc3c(F)cccc3F)cc(Cl)cn2c1C(=O)NCC1CCCCN1` (single isomer, unassigned; ent-6) [Example 191, ent-6-Chloro-8-[(2,6-difluorobenzyl)oxy]-2-methyl-N-(piperidin-2-ylmethyl)imidazo[1,2-a]-pyridine-3-carboxamide], the MEC came to 1.00 µM.
Turning to `Cc1nc2c(OCc3c(F)cccc3F)cccn2c1C(=O)NC1CNc2ccccc21` (single isomer, unassigned; ent-8) [Example 47, ent-8-[(2,6-Difluorobenzyl)oxy]-N-(2,3-dihydro-1H-indol-3-yl)-2-methylimidazo[1,2-a]pyridine-3-carboxamide], the MEC came out at 0.30 µM.
For `Cc1nc2c(OCc3c(F)cccc3F)cccn2c1C(=O)NC1CCNc2ccccc21` (single isomer, unassigned; ent-8) [Example 52, ent-8-[(2,6-Difluorobenzyl)oxy]-2-methyl-N-(1,2,3,4-tetrahydroquinolin-4-yl)imidazo[1,2-a]-pyridine-3-carboxamide], the MEC came to 0.03 µM.
For `Cc1nc2c(OCc3c(F)cccc3F)cccn2c1C(=O)NC1CNc2ccccc2C1` (single isomer, unassigned; ent-8) [Example 81, ent-8-[(2,6-Difluorobenzyl)oxy]-2-methyl-N-(1,2,3,4-tetrahydroquinolin-3-yl)imidazo[1,2-a]-pyridine-3-carboxamide], the MEC came to 1.00 µM.
Under `Cc1nc2c(OCc3c(F)cccc3F)cccn2c1C(=O)NC1CCNc2ccc(F)cc21` (single isomer, unassigned; ent-8) [Example 105, ent-8-[(2,6-difluorobenzyl)oxy]-N-(6-fluoro-1,2,3,4-tetrahydroquinolin-4-yl)-2-methylimidazo[1,2-a] pyridine-3-carboxamide] stands 0.30 µM.
Under `Cc1nc2c(OCc3c(F)cccc3F)cccn2c1C(=O)NC1CCNc2ccc(F)cc21` (single isomer, unassigned; ent-8) [Example 106, ent-8-[(2,6-difluorobenzyl)oxy]-N-(6-fluoro-1,2,3,4-tetrahydroquinolin-4-yl)-2-methylimidazo[1,2-a] pyridine-3-carboxamide] stands 0.03 µM.
Under `Cc1nc2c(OCc3c(F)cccc3F)cccn2c1C(=O)NC1CNCc2ccccc21` (single isomer, unassigned; ent-8) [Example 109, ent-8-[(2,6-difluorobenzyl)oxy]-2-methyl-N-(1,2,3,4-tetrahydroisoquinolin-4-yl)imidazo[1,2-a]pyridine-3-carboxamide] stands 1.00 µM; under `Cc1nc2c(OCc3c(F)cccc3F)cccn2c1C(=O)NC1CNCc2ccccc21` (single isomer, unassigned; ent-8) [Example 110, ent-8-[(2,6-difluorobenzyl)oxy]-2-methyl-N-(1,2,3,4-tetrahydroisoquinolin-4-yl)imidazo[1,2-a]pyridine-3-carboxamide], 0.30 µM.
In the case of `Cc1nc2c(OCc3c(F)cccc3F)cccn2c1C(=O)NC1CCNc2ccc(C(F)(F)F)cc21` (single isomer, unassigned; ent-8) [Example 111, ent-8-[(2,6-difluorobenzyl)oxy]-2-methyl-N-[6-(trifluoromethyl)-1,2,3,4-tetrahydroquinolin-4-yl]imidazo[1,2-a]pyridine-3-carboxamide], the MEC was determined as 1.00 µM.
Under `Cc1nc2c(OCc3c(F)cccc3F)cccn2c1C(=O)NC1CCNc2ccc(C(F)(F)F)cc21` (single isomer, unassigned; ent-8) [Example 112, ent-8-[(2,6-difluorobenzyl)oxy]-2-methyl-N-[6-(trifluoromethyl)-1,2,3,4-tetrahydroquinolin-4-yl]imidazo[1,2-a]pyridine-3-carboxamide] stands 0.10 µM.
